Measured values: patent US20100022604A1, “PROPHYLACTIC OR THERAPEUTIC AGENT FOR ALOPECIA” (TAISHO PHARMACEUTICAL CO., LTD., priority 2006, published 2010)

Test system: C57BL mice, shaved dorsal area (hair growth)
Assay: Hair growth stimulatory effect measurement test in shaved mouse model
Format: in vivo
Procedure: Hair Growth Stimulatory Effect Measurement Test in Shaved Mouse Model
Dorsal hair of each of C57BL mice (female, about 7-week old) was shaved, and 200 μL of each of test compounds (90 mM) dissolved into 99% ethanol was applied to the shaved area once a day for 40 days from the day 3 after the shaving. As the evaluated compounds, the compound of the present invention and the compound (GPI-1511) disclosed in International Publication No. WO98/55090 were used. As a control, a group in which 200 μL of the vehicle was applied was used.
A hair growth state of the shaved area of each of 10 to 12 mice of each group was rated every 2 or 3 days after the start of administration by using the following hair growth score criteria.
(Hair Growth Score Criteria)
2=hair growth in less than 30% of shaved area
3=hair growth in 30% or more and less than 60% of shaved area
4=hair growth in 60% or more and less than 90% of shaved area
5=hair growth in 90% or more of shaved area

COc1ccc(OCc2nc([C@@H]3CCCN3C(=O)C(F)(F)C3(O)CC(C)(C)CC(C)(C)C3)no2)cc1OC [compound of the present invention, 1-[2-((2S)-2-{5-[(3,4-dimethoxyphenoxy)methyl]-1,2,4-oxadiazol-3-yl}pyrrolidin-1-yl)-1,1-difluoro-2-oxoethyl]-3,3,5,5-tetramethylcyclohexanol]
increase in hair growth score from the day 19 of the administration (18 μmol topical once a day, from day 19 of administration): remarkable | hair growth score compared to the group with GPI-1511 (18 μmol topical once a day, over the whole test period): higher than that of the group with GPI-1511 over the whole test period | hair growth score compared to the vehicle (control) group (female, 18 μmol (200 μL of 90 mM in 99% ethanol) applied to the shaved area once a day for 40 days, score 1-5, FIG. 1): an increase in hair growth score was exhibited from an early stage
